According to publication PMC4119598 (Journal of natural products, 2013):

Experiments:
[1] = system: fabp10a:DsRed2 zebrafish larvae; assay: In vivo hepatotoxicity in fabp10a:DsRed2 zebrafish larvae; parameters: species or system zebrafish (Brachydanio rerio); conditions: for liver phenotype (Figure 3): 6 dpf after 3 days of exposure at MTC (60.2 μM of 1, 15.5 μM of 2, 0.3 μM of 4)
P. berghei LS parasites = assay: Immunofluorescence analysis; assay type: cell-based, Plasmodium berghei; conditions: 10 μM, 48 h post-infection
MtFabI = MtFabI (Mycobacterium tuberculosis, UniProt P9WGR1); assay: FabI enzyme inhibition assay MtFabI; assay type: biochemical, M. tuberculosis
Chain of MtFabI (P9WGR1 whole entry, looked up): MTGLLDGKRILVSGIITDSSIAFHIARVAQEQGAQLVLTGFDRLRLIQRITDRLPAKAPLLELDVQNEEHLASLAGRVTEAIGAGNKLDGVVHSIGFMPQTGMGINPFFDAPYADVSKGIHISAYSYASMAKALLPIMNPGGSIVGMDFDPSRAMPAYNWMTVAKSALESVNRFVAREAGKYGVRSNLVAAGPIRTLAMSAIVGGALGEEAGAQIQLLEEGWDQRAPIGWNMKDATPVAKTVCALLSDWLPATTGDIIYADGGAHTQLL

BS of Plasmodium = conditions: read-out: BS IC50 (reported); cited from earlier work

| SMILES | liver phenotype (Figure 3) [1] | effect on size of LS parasites (IFA) (P. berghei LS parasites) | IC50 (MtFabI) [µM] | hepatotoxicity in zebrafish larvae ([1]; highest concentrations tested, up to and including MTC) | IC50 (BS of Plasmodium) [µM] |
| --- | --- | --- | --- | --- | --- |
| COC(=O)/C(=C1/OC(=O)C(c2ccccc2)=C1O)c1ccccc1 [compound 2, vulpic acid] | enlarged liver | decrease in the size of parasites | > 200 |  |  |
| COc1cc(C)c(C(=O)Oc2cc(C)c(C(=O)O)c(O)c2)c(O)c1 [compound 1, evernic acid] | reduced liver size | no effect | > 200 |  |  |
| CC(=O)C1=C(O)C=C2Oc3c(C(C)=O)c(O)c(C)c(O)c3[C@@]2(C)C1=O [compound 4, (+)-usnic acid] | liver with normal shape and size | decrease in the size of parasites |  | no hepatotoxicity was observed |  |
| COc1cc(C(=O)O)c2c(c1C)OC(=O)c1c(C)cc(O)c(C=O)c1O2 [compound 3, psoromic acid] |  | no effect | > 200 |  |  |
| COc1cc(NC(C)CCCN)c2ncccc2c1 (stereo not drawn) [primaquine] |  |  |  |  | 1.4 to 3.3 |
